The results in this text go back to ChEMBL document CHEMBL4376895.

Active and inactive are the calls of the source. No cut-off for these calls is given here. Positions of bridges follow the written chain, without caps; N, C: chain ends. Residues, ends and D or L forms follow the SMILES beside them.

Holding throughout (type): cell-based
Experiment [1] has as its target T1, Neuronal acetylcholine receptor; alpha4/beta2 (Rattus norvegicus) (UniProt P09483+P12390). The experiment in a line: Antagonist activity at rat alpha4beta2 nAChR expressed in Xenopus laevis oocytes assessed as inhibition of Ach-induced response up to 10 uM at -70 mV holding potential by two electrode voltage-clamp assay. A general note: Two-electrode voltage clamp is typically applied to oocytes expressing channels or transporters.

Experiment [2] concerns the target T2, Neuronal acetylcholine receptor; alpha4/beta4 (Rattus norvegicus) (UniProt P09483+P12392). The experiment in a line: Antagonist activity at rat alpha4beta4 nAChR expressed in Xenopus laevis oocytes assessed as inhibition of Ach-induced response up to 10 uM at -70 mV holding potential by two electrode voltage-clamp assay.
Experiment [3] has as its target T3, Neuronal acetylcholine receptor; alpha2/beta4 (Rattus norvegicus) (UniProt P12389+P12392). The experiment in a line: Antagonist activity at rat alpha2beta4 nAChR expressed in Xenopus laevis oocytes assessed as inhibition of Ach-induced response up to 10 uM at -70 mV holding potential by two electrode voltage-clamp assay.
The target of experiment [4] is Nicotinic acetylcholine receptor alpha9/alpha10 (Rattus norvegicus) (UniProt P43144+Q9JLB5). The experiment is described as follows: Antagonist activity at rat alpha9alpha10 nAChR expressed in Xenopus laevis oocytes assessed as inhibition of Ach-induced response at 10 nM at -70 mV holding potential preincubated for 5 mins followed by compound washout by two electrode voltage-clamp assay.

The target in experiment [5] is T4, Neuronal acetylcholine receptor; alpha9/alpha10 (Homo sapiens) (UniProt Q9UGM1+Q9GZZ6). The experiment in a line: Antagonist activity at human alpha9alpha10 nAChR expressed in Xenopus laevis oocytes assessed as inhibition of Ach-induced response at 50 nM at -70 mV holding potential by two electrode voltage-clamp assay relative to control.
Experiment [6] addresses T3, Neuronal acetylcholine receptor; alpha2/beta4 (Rattus norvegicus). The experiment in a line: Antagonist activity at rat alpha2beta4 nAChR expressed in Xenopus laevis oocytes assessed as inhibition of Ach-induced response at >10 uM at -70 mV holding potential by two electrode voltage-clamp assay.
Experiment [7] concerns the target T1, Neuronal acetylcholine receptor; alpha4/beta2 (Rattus norvegicus). The experiment in a line: Antagonist activity at rat alpha4beta2 nAChR expressed in Xenopus laevis oocytes assessed as inhibition of Ach-induced response at >10 uM at -70 mV holding potential by two electrode voltage-clamp assay.
In experiment [8] the target is T2, Neuronal acetylcholine receptor; alpha4/beta4 (Rattus norvegicus). The experiment is described as follows: Antagonist activity at rat alpha4beta4 nAChR expressed in Xenopus laevis oocytes assessed as inhibition of Ach-induced response at >10 uM at -70 mV holding potential by two electrode voltage-clamp assay.
Experiment [9] concerns the target T4, Neuronal acetylcholine receptor; alpha9/alpha10 (Homo sapiens). The experiment in a line: Antagonist activity at human alpha9alpha10 nAChR expressed in Xenopus laevis oocytes assessed as inhibition of Ach-induced response at 100 nM at -70 mV holding potential by two electrode voltage-clamp assay relative to control.

For orientation: inhibition means the percentage by which the read-out fell short of the control.

Take `CC[C@H](C)[C@@H]1NC(=O)[C@H](CCCNC(=N)N)NC(=O)[C@H](CCCNC(=N)N)NC(=O)[C@@H](NC(=O)[C@H](Cc2ccc(O)cc2)NC(=O)[C@H](CCCNC(=N)N)NC(=O)[C@H](CCCNC(=N)N)NC(=O)[C@H](CCCNC(=N)N)NC(=O)[C@H](CCCNC(=N)N)NC(=O)[C@H](CC(=O)O)NC(=O)[C@H](Cc2ccc(O)cc2)NC(=O)[C@@H]2CCCN2C(=O)[C@H](CO)NC(=O)[C@H](CCCNC(=N)N)NC(=O)[C@H](CO)NC(=O)[C@H](Cc2ccc(O)cc2)NC(=O)[C@H](CCCNC(=N)N)NC(=O)CNC(=O)[C@H](CO)NC(=O)[C@H](CO)NC(=O)[C@H](CCCNC(=N)N)NC(=O)[C@H](CO)NC(=O)[C@@H](N)[C@@H](C)O)CSSC[C@@H](C(=O)N[C@H](C(=O)O)C(C)C)NC(=O)[C@H](C)NC(=O)[C@H](CC(=O)O)NC(=O)[C@H]([C@@H](C)O)NC1=O` (H-TSRSSGRYSRSPYDRRRRYCRRITDACV-OH; disulfide 20-27): the inhibition entry in experiment [1], in experiment [2] and in [3] was “inactive” each time.

As to H-TARSSGRYARSPYDRRRRYARRITDAAV-OH, the inhibition result in experiment [1], in experiment [2] and in [3] was “inactive” in each case.

Take H-TARSSGRYARSPYDRRRRYSRRITDASV-OH: the inhibition entry in [4], in experiment [6], in experiment [7] and in experiment [8] was “Active” in each case. Further, the values for the inhibition in experiment [5] and in experiment [9] were 74% and 100%, respectively. Further, the inhibition entry in experiment [1], in experiment [2] and in [3] was “inactive” in each case.

Turning to H-TSRSSGRYSRSPYDRRRRYARRITDAAV-OH, the inhibition result in [1], in experiment [2] and in experiment [3] was “inactive” in each case.

Turning to H-TSRSSGRYSRSPYDRRRRYSRRITDASV-OH, the inhibition result in experiment [1], in experiment [2] and in experiment [3] was “inactive” in each case.
